Measurements as given in the supplement of paper PMC10307832.

How the values were obtained:
Assay in all cases: relative viability (nuclei count vs DMSO), 5 days (fraction); higher = more cells survive
[1] = compound: C1=CC=C(C(=C1)C2=CC=C(C=C2)C3=CSC4=C3C(=C(C(=O)N4)C#N)O)O + C[C@]1(O)C[C@@H](c2nc(-c3ccc4ccc(-c5ccccc5)nc4c3)c3c(N)nccn32)C1 [Linsitinib] (partner 1 µM)
Summary of the method: (§1)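 Medians of duplicate plates are given as relative viability. That measure is the nuclei count in treated wells divided by the count in vehicle wells. Counts were taken on 4× images of lung cancer cell lines in 1536-well plates, 5 days after pin-tool dosing the day after seeding with one drug alone or a fixed anchor-drug dose plus five library-drug doses (not always all listed) in √10 steps.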

[2] = compound: CC1=CN2C(=O)C=C(N=C2C(=C1)C(C)NC3=CC=CC=C3)N4CCOCC4 [TGX 221] + CC1(C)CCC(c2ccc(Cl)cc2)=C(CN2CCN(c3ccc(C(=O)NS(=O)(=O)c4ccc(N[C@H](CCN5CCOCC5)CSc5ccccc5)c(S(=O)(=O)C(F)(F)F)c4)cc3)CC2)C1 [Navitoclax] (partner 0.5 µM)
Summary of the method: as §1

[3] = compound: O=C(CCCCCCNC(=O)c1cnc(N(c2ccccc2)c2ccccc2)nc1)NO [Ricolinostat] + COc1cc2c(Oc3ccc(NC(=O)C4(C(=O)Nc5ccc(F)cc5)CC4)cc3F)ccnc2cc1OCCCN1CCOCC1 [Foretinib] (partner 0.25 µM)
Summary of the method: as §1

[4] = compound: O=C(CCCCCCNC(=O)c1cnc(N(c2ccccc2)c2ccccc2)nc1)NO [Ricolinostat] + Cc1nc(NC(=O)N2CCC[C@H]2C(N)=O)sc1-c1ccnc(C(C)(C)C(F)(F)F)c1 [Alpelisib] (partner 2 µM)
Summary of the method: as §1

Cell Line | relative viability ([1]; first compound 0.08 µM) | relative viability ([1]; first compound 0.253 µM) | relative viability ([1]; first compound 0.8 µM) | relative viability ([1]; first compound 2.53 µM) | relative viability ([1]; first compound 8 µM) | relative viability ([2]; first compound 0.08 µM) | relative viability ([2]; first compound 0.8 µM) | relative viability ([2]; first compound 2.53 µM) | relative viability ([2]; first compound 8 µM) | relative viability ([3]; first compound 0.08 µM) | relative viability ([3]; first compound 0.253 µM) | relative viability ([3]; first compound 0.8 µM) | relative viability ([3]; first compound 2.53 µM) | relative viability ([4]; first compound 0.08 µM) | relative viability ([4]; first compound 0.253 µM) | relative viability ([4]; first compound 0.8 µM) | relative viability ([4]; first compound 2.53 µM) | relative viability ([2]; first compound 0.253 µM)
LC-2-ad | 0.894 | 0.889 | 0.805 | 0.876 | 0.751 | 0.514 | 0.424 | 0.348 | 0.361 | 0.747 | 0.874 | 0.886 | 0.761 | 0.786 | 0.853 | 0.839 | 0.663 | 
NCI-H2347 | 0.993 | 1.13 | 0.961 | 0.99 | 0.844 | 0.796 | 0.598 | 0.432 | 0.49 |  | 1.04 | 0.792 | 0.802 | 0.889 | 1.01 | 0.987 | 0.963 | 0.681
NCI-H2009 | 1.14 | 1.24 | 1.17 | 1.15 | 1.15 | 1.13 | 1.17 | 1.02 | 0.927 | 1.16 | 1.19 | 1.2 | 1.05 | 1.13 | 1.11 | 1.12 | 0.923 | 1.16
NCI-H460 |  | 0.81 | 0.682 | 1.06 | 0.657 | 1.04 | 1.24 | 1.19 | 1.07 | 0.972 | 0.927 | 1.04 | 1.04 | 0.321 | 0.461 | 0.421 | 0.402 | 1.02
HOP-62 | 1.19 | 1.15 | 0.97 | 1.05 | 0.736 | 1.04 | 1.09 | 1.12 | 1.06 | 1 | 1.03 | 1 | 1.09 | 0.932 | 0.901 | 0.844 | 0.848 | 1.06
NCI-H1975 | 0.926 | 0.802 | 1.04 | 1.02 | 0.796 | 1.03 | 0.989 | 0.903 | 0.805 | 1.04 | 0.975 | 0.822 | 0.917 | 0.582 | 0.556 |  | 0.492 | 1.13
NCI-H838 | 0.738 | 1.22 | 1.08 | 0.988 | 1.04 | 1.08 | 1.05 | 0.888 | 0.779 | 0.9 | 1.07 | 1.06 | 0.941 | 0.903 | 1.08 | 1.04 | 1.08 | 0.977
NCI-H2085 | 0.878 | 0.904 | 0.935 | 1.09 | 0.773 | 1.11 | 0.951 | 0.622 | 0.626 |  | 0.867 | 1.02 | 0.783 |  | 1.04 | 0.861 | 0.915 | 0.978
NCI-H3122 | 1.1 | 1.07 | 1.06 | 1.05 | 1.02 | 1.09 | 1.02 | 1.09 | 1.01 | 0.98 | 0.959 | 1.08 | 1.13 | 0.514 | 0.942 | 0.785 | 0.964 | 1.03
